Test results from patent US6764858B2, “Methods for creating a compound library” (Pharmacia & Upjohn Company, priority 1999, dated 2004).

Target: T1, thrombin (Homo sapiens, UniProt P00734)
T1 construct: purchased Sigma
Experiment: WaterLOGSY NMR screen of the functional genomics library against thrombin
Format: binding
Conditions: 133 μM compound, 7 μM thrombin, 100 mM phosphate buffer, pH6.5
Procedure: Several proteins with known functions were used for validating the screening library. The proteins were dissolved in 100 mM phosphate buffer, pH 6.5 to make stock solutions which were further diluted and mixed with the compound mixtures to make final concentration of 5-7 μM. The concentration of compounds was about 133 μM in the final solution. The ratio of compound to protein concentrations was about 20:1.
NMR experiments for validating the functional genomics library with proteins of known functions were conducted on a Bruker Avance 600 MHz spectrometer equipped with 5 mm FISEI flow probe and Gilson 215 liquid sample handler. Binding was detected using the WaterLOGSY experiment.
The functional genomics screening library was screened against thrombin obtained from Sigma, which is one of the test proteins used for validation of the library. One assay mixture contained 133 μM of N-alpha-dansyl-DL-tryptophan cyclohexylammonium salt (DPS) and 7 μM of thrombin in 100 mM phosphate buffer, pH6.5. This mixture also contained Benzyl (S)-(−)-2-(1-pyrrolidinylcarbonyl)-1-pyrrolidinecarboxylate (ZPR), Chymostatin A (CSA), Tetrahydrofolic acid (C2F), Haloperidol (THK). Referring to FIG. 17, the reference NMR spectrum of DPS is in the top panel while the WaterLOGSY spectrum of the mixture is shown in the bottom panel. The positive peak in the WaterLOGSY spectrum indicates binding of DPS to thrombin. […]

Compound: CN(C)c1cccc2c(S(=O)(=O)NC(Cc3c[nH]c4ccccc34)C(=O)O)cccc12.NC1CCCCC1 (racemic) [DPS, N-alpha-dansyl-DL-tryptophan cyclohexylammonium salt]
- binding to thrombin (positive peak in WaterLOGSY spectrum): binding
